The values that follow come from ChEMBL document CHEMBL5465560, “Selectivity Literature for EUbOPEN Chemogenomic Library” (2024).

A value given as a limit tells only on which side of the number the result lay.

Assay [1] concerns the target T1, Aurora kinase A (Homo sapiens) (UniProt O14965).
T1 sequence (whole entry): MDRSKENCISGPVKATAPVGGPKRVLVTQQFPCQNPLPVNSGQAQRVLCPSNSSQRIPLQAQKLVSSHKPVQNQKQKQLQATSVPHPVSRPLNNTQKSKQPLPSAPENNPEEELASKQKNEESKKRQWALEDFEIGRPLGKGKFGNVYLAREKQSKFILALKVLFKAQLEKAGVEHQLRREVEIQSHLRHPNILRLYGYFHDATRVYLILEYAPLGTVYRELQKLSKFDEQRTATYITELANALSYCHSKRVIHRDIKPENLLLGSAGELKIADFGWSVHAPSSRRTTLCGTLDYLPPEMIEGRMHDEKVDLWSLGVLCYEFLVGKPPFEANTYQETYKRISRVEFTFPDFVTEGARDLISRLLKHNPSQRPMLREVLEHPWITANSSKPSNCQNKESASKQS
The assay can be described thus: Selectivity interaction (Ambit KINOMEscan and KiNATiv profiling in Jurkat cells) EUB0000090b STK6. The format is cell-based. The following applies: at 1 µM.

The target of assay [2] is Mitogen-activated protein kinase 8 (Homo sapiens, UniProt P45983). The assay can be described thus: Selectivity interaction (KinomeScan (DiscoverX)) EUB0000092b MAPK8. Particulars: at 10 µM.
Assay [3] addresses T2, Serine/threonine-protein kinase Nek11 (Homo sapiens) (UniProt Q8NG66).
T2 sequence (whole entry): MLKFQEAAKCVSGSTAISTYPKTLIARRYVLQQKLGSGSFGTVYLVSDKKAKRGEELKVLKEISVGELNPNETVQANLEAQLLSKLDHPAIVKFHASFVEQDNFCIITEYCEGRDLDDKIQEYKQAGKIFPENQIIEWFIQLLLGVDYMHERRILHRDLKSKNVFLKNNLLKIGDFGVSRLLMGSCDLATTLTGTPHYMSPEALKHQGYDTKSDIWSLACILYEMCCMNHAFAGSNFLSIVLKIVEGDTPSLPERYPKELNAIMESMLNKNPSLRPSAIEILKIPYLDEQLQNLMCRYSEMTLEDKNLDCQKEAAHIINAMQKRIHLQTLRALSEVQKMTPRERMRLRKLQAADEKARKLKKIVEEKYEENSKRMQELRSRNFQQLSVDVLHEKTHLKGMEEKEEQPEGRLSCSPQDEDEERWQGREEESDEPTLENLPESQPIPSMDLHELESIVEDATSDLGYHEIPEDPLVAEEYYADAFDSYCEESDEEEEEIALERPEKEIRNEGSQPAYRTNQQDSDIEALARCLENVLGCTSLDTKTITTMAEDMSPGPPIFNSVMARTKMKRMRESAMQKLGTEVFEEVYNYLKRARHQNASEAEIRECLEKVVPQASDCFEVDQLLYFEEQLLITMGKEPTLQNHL
Nature of the assay: Selectivity interaction (KinomeScan (DiscoverX)) EUB0000092b NEK11. Particulars: at 10 µM.

Assay [4] deals with Protein-tyrosine kinase 6 (Homo sapiens, UniProt Q13882). Nature of the assay: Selectivity interaction (KinomeScan (DiscoverX)) EUB0000092b PTK6. The following applies: at 10 µM.
Assay [5] concerns the target Ephrin type-A receptor 5 (Homo sapiens) (UniProt P54756). Nature of the assay: Selectivity interaction (Kinase panel (Z-LYTE Assay)) EUB0001632a EPHA5. The following applies: at 10 µM.
The target of assay [6] is T3, Serine/threonine-protein kinase ULK2 (Homo sapiens) (UniProt Q8IYT8).
T3 sequence (whole entry): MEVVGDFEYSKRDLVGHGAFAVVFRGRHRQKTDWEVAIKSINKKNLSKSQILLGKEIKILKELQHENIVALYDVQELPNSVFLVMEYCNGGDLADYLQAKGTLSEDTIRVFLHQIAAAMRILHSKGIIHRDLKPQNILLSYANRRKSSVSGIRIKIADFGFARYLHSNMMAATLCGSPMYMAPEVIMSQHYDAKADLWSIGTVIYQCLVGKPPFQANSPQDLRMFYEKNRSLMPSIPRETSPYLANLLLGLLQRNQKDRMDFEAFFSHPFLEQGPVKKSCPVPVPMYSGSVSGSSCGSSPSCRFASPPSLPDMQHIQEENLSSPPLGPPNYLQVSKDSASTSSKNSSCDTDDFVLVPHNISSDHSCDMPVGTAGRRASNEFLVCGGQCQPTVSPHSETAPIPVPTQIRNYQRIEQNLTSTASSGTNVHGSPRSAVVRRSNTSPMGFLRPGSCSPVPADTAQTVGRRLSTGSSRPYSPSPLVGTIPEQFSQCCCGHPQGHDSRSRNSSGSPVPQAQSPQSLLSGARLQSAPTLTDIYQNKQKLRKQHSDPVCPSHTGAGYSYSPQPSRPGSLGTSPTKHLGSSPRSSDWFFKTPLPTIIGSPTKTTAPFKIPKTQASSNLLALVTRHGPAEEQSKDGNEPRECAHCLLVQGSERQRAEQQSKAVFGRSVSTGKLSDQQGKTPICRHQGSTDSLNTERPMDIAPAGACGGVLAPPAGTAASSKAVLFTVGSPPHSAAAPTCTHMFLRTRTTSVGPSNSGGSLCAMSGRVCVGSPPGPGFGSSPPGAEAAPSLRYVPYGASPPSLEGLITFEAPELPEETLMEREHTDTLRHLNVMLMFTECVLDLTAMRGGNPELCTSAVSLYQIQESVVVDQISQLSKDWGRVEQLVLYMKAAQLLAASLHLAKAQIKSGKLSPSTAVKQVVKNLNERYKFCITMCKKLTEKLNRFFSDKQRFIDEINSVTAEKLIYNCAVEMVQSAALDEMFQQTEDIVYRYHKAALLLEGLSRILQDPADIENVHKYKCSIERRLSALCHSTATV
The assay can be described thus: Selectivity interaction (LanthaScreen Eu Kinase Binding Assay) EUB0001632a ULK2. The following applies: at 10 µM. (In general: TR-FRET usually uses a lanthanide donor and a delayed reading to cut background.)

The target in assay [7] is Mitogen-activated protein kinase 10 (Homo sapiens, UniProt P53779). Nature of the assay: Selectivity interaction (KinomeScan (DiscoverX)) EUB0000607a MAPK10. Particulars: at 10 µM.
The target in assay [8] is Bromodomain-containing protein 2 (Homo sapiens) (UniProt P25440). Nature of the assay: Selectivity interaction (Human bromodomain panel (DSF assay)) EUB0000233b BRD2. Background: DSF heats the sample and reads unfolding from a dye or from intrinsic fluorescence.
Assay [9] concerns the target Serine/threonine-protein kinase PAK 6 (Homo sapiens) (UniProt Q9NQU5). The assay can be described thus: Selectivity interaction (KinomeScan (DiscoverX)) EUB0000595a PAK6. The following applies: at 10 µM.
For assay [10], the target named is 5'-AMP-activated protein kinase catalytic subunit alpha-1 (Homo sapiens, UniProt Q13131). Nature of the assay: Selectivity interaction (Kinase panel (KiNativ target engagement assay in Jurkat cells)) EUB0001635a PRKAA1. The format is cell-based. Particulars: Selectivity number of off-targets 0.0, Selectivity number of targets 233.0, Source Knowledge https://www.sciencedirect.com/science/article/pii/S2451945619300674?via%3Dihub, at 1 µM.

The target in assay [11] is Calcium/calmodulin-dependent protein kinase type II subunit delta (Homo sapiens) (UniProt Q13557). Nature of the assay: Selectivity interaction (KinomeScan (DiscoverX)) EUB0000618a CAMK2D. Particulars: at 10 µM.
Chain of Calcium/calmodulin-dependent protein kinase type II subunit delta (Homo sapiens) (Q13557 whole entry): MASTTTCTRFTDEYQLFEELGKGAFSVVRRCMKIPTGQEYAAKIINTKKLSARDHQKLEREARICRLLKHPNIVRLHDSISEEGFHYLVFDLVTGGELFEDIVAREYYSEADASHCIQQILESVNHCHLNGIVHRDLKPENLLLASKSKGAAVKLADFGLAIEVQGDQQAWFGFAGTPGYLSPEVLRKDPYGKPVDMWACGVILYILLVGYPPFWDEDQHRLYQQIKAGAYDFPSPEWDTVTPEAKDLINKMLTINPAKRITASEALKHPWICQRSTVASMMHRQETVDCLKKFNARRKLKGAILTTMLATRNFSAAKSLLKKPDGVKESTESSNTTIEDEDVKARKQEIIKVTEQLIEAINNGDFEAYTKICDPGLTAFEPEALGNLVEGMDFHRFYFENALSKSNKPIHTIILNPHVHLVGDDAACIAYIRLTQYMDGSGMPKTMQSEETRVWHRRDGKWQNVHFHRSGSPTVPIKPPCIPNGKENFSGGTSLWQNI

Chain of Mitogen-activated protein kinase 10 (P53779 whole entry): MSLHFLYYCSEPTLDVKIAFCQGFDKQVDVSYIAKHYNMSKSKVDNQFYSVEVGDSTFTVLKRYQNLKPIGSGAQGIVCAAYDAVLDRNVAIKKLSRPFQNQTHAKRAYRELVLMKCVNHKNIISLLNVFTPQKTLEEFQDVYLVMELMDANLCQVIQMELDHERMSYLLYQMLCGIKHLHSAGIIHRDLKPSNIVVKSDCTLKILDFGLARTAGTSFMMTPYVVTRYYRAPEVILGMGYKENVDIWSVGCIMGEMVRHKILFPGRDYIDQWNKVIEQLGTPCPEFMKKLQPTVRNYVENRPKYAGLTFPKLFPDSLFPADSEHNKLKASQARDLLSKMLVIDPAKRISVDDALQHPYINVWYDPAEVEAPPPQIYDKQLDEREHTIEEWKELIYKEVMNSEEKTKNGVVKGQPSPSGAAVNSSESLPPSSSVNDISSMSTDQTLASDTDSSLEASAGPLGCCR
Chain of 5'-AMP-activated protein kinase catalytic subunit alpha-1 (Q13131 whole entry, looked up): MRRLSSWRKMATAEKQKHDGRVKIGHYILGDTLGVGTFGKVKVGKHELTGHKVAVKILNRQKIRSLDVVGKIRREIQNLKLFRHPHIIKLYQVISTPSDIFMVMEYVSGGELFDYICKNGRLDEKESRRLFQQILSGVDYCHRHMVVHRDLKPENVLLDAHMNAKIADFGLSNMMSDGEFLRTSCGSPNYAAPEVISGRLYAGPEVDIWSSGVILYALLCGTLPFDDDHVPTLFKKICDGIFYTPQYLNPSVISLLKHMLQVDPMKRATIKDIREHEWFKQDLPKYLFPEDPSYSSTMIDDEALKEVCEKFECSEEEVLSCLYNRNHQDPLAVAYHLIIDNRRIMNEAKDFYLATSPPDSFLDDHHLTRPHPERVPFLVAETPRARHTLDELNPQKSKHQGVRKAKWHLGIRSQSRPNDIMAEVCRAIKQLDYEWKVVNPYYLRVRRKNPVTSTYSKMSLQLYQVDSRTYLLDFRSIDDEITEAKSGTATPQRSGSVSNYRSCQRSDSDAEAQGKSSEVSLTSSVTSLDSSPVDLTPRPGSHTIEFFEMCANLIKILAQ
Chain of Ephrin type-A receptor 5 (Homo sapiens) (P54756 whole entry): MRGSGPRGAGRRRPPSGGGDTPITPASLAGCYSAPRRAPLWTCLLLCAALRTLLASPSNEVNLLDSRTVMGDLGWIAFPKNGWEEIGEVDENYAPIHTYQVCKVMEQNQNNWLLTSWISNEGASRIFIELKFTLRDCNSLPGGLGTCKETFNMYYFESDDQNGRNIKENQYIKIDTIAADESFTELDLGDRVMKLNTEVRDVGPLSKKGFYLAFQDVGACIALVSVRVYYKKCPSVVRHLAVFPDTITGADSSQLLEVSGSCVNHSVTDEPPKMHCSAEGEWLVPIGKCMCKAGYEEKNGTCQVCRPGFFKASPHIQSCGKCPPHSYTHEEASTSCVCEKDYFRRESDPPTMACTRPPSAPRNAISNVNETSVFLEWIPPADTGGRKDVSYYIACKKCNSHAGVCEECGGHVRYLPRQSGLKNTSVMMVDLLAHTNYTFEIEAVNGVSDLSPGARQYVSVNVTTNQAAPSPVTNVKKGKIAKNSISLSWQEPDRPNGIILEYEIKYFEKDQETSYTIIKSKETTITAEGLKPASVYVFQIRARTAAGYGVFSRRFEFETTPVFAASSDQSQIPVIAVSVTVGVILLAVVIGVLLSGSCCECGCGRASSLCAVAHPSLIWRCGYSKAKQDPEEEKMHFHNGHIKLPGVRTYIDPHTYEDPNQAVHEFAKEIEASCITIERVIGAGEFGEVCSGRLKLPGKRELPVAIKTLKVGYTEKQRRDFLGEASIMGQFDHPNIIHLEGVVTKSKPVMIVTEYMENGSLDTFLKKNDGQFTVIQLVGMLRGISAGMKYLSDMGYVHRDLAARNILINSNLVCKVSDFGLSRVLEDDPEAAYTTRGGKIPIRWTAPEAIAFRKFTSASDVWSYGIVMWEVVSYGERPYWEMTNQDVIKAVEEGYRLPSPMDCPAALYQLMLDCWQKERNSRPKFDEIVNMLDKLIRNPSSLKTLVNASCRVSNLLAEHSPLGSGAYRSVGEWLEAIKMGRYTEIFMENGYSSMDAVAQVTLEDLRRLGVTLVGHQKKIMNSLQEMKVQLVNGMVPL
Chain of Mitogen-activated protein kinase 8 (P45983 whole entry): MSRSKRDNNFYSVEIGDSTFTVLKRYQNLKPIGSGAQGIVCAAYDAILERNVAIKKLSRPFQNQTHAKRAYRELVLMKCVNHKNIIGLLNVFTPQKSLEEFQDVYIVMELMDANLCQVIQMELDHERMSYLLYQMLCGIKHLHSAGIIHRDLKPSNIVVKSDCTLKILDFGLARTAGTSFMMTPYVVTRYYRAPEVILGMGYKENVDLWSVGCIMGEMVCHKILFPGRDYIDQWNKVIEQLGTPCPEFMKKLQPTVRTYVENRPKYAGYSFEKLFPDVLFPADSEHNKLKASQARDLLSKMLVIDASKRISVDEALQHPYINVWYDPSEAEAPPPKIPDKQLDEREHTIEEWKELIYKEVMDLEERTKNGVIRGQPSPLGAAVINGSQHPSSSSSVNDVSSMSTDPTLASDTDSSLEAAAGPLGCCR
Chain of Bromodomain-containing protein 2 (Homo sapiens) (P25440 whole entry, looked up): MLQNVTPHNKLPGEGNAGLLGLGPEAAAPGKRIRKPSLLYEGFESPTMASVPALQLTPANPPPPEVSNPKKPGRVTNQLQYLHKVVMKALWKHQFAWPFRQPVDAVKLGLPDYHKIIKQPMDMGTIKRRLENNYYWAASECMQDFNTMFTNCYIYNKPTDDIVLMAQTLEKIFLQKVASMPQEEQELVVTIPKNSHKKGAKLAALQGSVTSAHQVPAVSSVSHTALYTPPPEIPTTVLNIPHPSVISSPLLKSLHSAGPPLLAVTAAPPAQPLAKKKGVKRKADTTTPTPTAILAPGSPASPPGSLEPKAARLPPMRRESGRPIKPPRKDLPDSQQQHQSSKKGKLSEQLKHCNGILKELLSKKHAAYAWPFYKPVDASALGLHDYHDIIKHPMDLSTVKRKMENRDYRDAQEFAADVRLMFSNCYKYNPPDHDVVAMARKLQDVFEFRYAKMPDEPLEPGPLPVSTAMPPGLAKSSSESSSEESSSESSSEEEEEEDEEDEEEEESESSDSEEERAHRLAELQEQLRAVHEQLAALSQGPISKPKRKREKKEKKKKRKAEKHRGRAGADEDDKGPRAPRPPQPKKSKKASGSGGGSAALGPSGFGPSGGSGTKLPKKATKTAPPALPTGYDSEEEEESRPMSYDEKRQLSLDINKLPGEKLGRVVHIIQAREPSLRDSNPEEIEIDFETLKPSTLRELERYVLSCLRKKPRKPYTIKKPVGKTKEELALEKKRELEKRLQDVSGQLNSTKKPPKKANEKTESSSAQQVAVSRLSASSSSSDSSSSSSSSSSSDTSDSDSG
Chain of Serine/threonine-protein kinase PAK 6 (Homo sapiens) (Q9NQU5 whole entry, looked up): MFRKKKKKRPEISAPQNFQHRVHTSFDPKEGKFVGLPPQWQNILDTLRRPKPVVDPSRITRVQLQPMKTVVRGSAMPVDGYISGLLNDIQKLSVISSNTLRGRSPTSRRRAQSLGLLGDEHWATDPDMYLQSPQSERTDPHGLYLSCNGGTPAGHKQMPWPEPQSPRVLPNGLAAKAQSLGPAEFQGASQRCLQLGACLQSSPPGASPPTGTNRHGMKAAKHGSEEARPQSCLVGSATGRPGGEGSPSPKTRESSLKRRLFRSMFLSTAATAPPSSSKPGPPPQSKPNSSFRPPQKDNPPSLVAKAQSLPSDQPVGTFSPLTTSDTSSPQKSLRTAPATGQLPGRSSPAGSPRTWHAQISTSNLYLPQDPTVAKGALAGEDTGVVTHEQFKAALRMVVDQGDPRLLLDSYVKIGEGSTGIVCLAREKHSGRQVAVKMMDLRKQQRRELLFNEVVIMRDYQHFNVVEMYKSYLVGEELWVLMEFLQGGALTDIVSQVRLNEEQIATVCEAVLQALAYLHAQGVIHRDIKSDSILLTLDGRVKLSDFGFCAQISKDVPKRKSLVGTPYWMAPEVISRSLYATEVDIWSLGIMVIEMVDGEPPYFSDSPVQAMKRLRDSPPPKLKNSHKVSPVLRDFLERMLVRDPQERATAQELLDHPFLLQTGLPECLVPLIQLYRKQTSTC
Chain of Protein-tyrosine kinase 6 (Q13882 whole entry, looked up): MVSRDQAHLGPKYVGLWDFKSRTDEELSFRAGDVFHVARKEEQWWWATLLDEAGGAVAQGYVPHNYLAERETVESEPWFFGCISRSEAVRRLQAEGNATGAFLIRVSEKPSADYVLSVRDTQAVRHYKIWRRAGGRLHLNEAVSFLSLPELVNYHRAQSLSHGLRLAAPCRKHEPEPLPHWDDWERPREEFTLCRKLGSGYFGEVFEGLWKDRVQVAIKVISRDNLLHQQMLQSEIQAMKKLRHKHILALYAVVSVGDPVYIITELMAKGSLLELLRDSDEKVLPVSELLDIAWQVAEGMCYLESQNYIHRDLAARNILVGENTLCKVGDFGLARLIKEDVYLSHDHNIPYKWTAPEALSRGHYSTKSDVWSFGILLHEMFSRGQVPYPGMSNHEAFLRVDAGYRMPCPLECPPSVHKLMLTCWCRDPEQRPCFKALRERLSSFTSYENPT

`CN(C)C/C=C/C(=O)Nc1ccc(C(=O)N2CCCC(Nc3ncc(Cl)c(-c4c[nH]c5ccccc45)n3)C2)cc1` (stereo unspecified) came in with a % of control in [1] of 96%.
Consider `CCC(=O)N1CCN(c2ccc(-n3c(=O)ccc4cnc5ccc(-c6cnc7ccccc7c6)cc5c43)cc2C(F)(F)F)CC1`, for which the % of control stood at 22% in [2], 65% in assay [3] and 51% in assay [4].
Compound `Cn1cc(-n2cnc3c(NCc4nc5cc(Cl)c(Cl)cc5[nH]4)nc(N4CCOCC4)nc32)cn1` registered a % of control in [5] of 6.77%. Besides, the % of inhibition in assay [6] is -117%.
As for `CNC(=O)Nc1ccc(-c2nc(N3CC4CCC(C3)O4)c3cnn(C4CCC5(CC4)OCCO5)c3n2)cc1`, in [7], the % of control was determined as 86%.
`CN(C)CCCOc1ccc(-c2cc(NCCCn3cccn3)nc(S(C)(=O)=O)n2)cc1` came in with a dTM in assay [8] of less than 2 K.
In turn, `COCC(=O)NC/C=C/c1ccc2ncnc(Nc3ccc(Oc4ccc(C)nc4)c(C)c3)c2c1` [CP-724714] registered a % of control in assay [9] of 87%.
`C=CC(=O)Nc1ccc(C(=O)Nc2[nH]nc3c2CN(C(=O)N[C@H](CN(C)C)c2ccccc2)C3(C)C)cc1` returned a % of engagement in [10] of 54.4%.
Turning to `O[C@H]1CC[C@H](Nc2ncc3nc(Nc4c(F)cc(F)cc4F)n([C@H]4CCOC4)c3n2)CC1`, the % of control in [11] was determined as 76%.
